Data on 27 compounds can be found in patent US4539149A, “β-Lactam antibacterial agents” (Beecham Group p.l.c., priority 1981, dated 1985).

The subject of the assay is P. mirabilis 889. In words: MIC against P. mirabilis 889. The assay is classed as cell-based.
The mark [1] stands for this setting: Proteus mirabilis, 889, P. mirabilis 889.

Counter-ions that a name gives are not always drawn. Where only a bound is given, the exact number is not on record here.

What is called MIC is the lowest concentration that inhibits growth of the organism.

Regarding `CC1(C)S[C@H]2N(C(=O)[C@@]2(NC=O)NC(=O)[C@H](NC(=O)Nc2cnc(Nc3ccc(S(N)(=O)=O)cc3)nc2O)c2ccc(O)cc2)[C@H]1C(=O)O` [Example 19, 6β-[D-2-[3-[2-(4-Aminosulphonylphenyl)amino-4-hydroxypyrimidin-5-yl]ureido]-2-(4-hydroxyphenyl)acetamido]-6α-formamidopenicillanic acid, disodium salt], under setting [1], the MIC is 0.5 µg/mL.
The same measure, in the same setting: under `CC1(C)S[C@H]2N(C(=O)[C@@]2(NC=O)NC(=O)[C@H](NC(=O)N2CCN(N=Cc3ccco3)C2=O)c2ccc(O)cc2)[C@H]1C(=O)O` [Example 20, 6α-Formamido-6β-[D-2-[[3-(furan-2-ylmethyleneamino)-2-oxoimidazolidin-1-yl]carbonylamino]-2-(4-hydroxyphenyl)acetamido]penicillanic acid, sodium salt] stands 0.25 µg/mL; under `CC1(C)S[C@H]2N(C(=O)[C@@]2(NC=O)NC(=O)[C@H](NC(=O)[C@@H](Cc2ccccc2)NC(N)=O)c2ccc(O)cc2)[C@H]1C(=O)O` [Example 21, 6β-[D-2-(D-2-Carbamoylamino-3-phenylpropionamido)-2-(4-hydroxyphenyl)acetamido]-6α-formamidopenicillanic acid, sodium salt], 2.5 µg/mL; under `CC1(C)S[C@H]2N(C(=O)[C@@]2(NC=O)NC(=O)C(NC(=O)c2cc3ccccc3oc2=O)c2ccc(O)cc2)[C@H]1C(=O)O` (stereo partly drawn) [Example 22, 6β-[2-[(Coumarin-3-yl)carbonylamino]-2-(4-hydroxyphenyl)acetamido]-6α-formamidopenicillanic acid, sodium salt], 10 µg/mL.
On the same count and under the same terms, under `CC1(C)S[C@H]2N(C(=O)[C@@]2(NC=O)NC(=O)[C@H](NC(=O)N2CCN(S(C)(=O)=O)C2=O)c2ccc(O)cc2)[C@H]1C(=O)O` [Example 24, 6α-Formamido-6β-[D-2-(4-hydroxyphenyl)-2-[(3-methylsulphonyl-2-oxoimidazolidin-1-yl)carbonylamino]acetamido]penicillanic acid, sodium salt] stands 0.1 µg/mL; under `CCOC(=O)c1[nH]cnc1C(=O)N[C@@H](C(=O)N[C@]1(NC=O)C(=O)N2[C@@H](C(=O)O)C(C)(C)S[C@@H]21)c1ccc(O)cc1` [Example 25, 6β-[D-2-[(5-Ethoxycarbonylimadazol-4-yl)carbonylamino]-2-(4-hydroxyphenyl)acetamido]-6α-formamidopenicillanic acid, sodium salt], 10 µg/mL.
Same read-out and setting: for `CCN1CCN(C(=O)N[C@@H](C(=O)N[C@]2(NC=O)C(=O)N3[C@@H](C(=O)O)C(C)(C)S[C@@H]32)c2cccs2)C(=O)C1=O` [Example 26, 6β-[D-2-(4-Ethyl-2,3-dioxopiperazin-1-yl)carbonylamino]-2-(thien-2-yl)acetamido]-6α-formamidopenicillanic acid, sodium salt] the value was 0.1 µg/mL; for `CCN1CCN(C(=O)N[C@H](C(=O)N[C@]2(NC=O)C(=O)N3[C@@H](C(=O)O)C(C)(C)S[C@@H]32)c2cccs2)C(=O)C1=O` [Example 27, 6β-[L-2-[(4-Ethyl-2,3-dioxopiperazin-1-yl)carbonylamino]-2-(thien-2-yl)acetamido]-6α-formamidopenicillanic acid sodium salt], 0.5 µg/mL.
The compound `CCN1CCN(C(=O)N[C@@H](C(=O)N[C@]2(NC=O)C(=O)N3[C@@H](C(=O)O)C(C)(C)S[C@@H]32)[C@H](C)OCc2ccccc2)C(=O)C1=O` [Example 30, 6β-[(2R,3S)-3-Benzyloxy-2-[(4-ethyl-2,3-dioxopiperazin-1-yl)carbonylamino]butyramido]-6α-formamidopenicillanic acid, sodium salt] yielded an MIC under setting [1] of 100 µg/mL.
Same read-out and setting: for `CC1(C)S[C@H]2N(C(=O)[C@@]2(NC=O)NC(=O)[C@H](NC(=O)Nc2cnc(Nc3ccccc3)nc2O)c2ccc(O)cc2)[C@H]1C(=O)O` [Example 32, 6α-Formamido-6β-[D-2-(4-hydroxyphenyl)-2-[3-[4-hydroxy-2-(phenylamino)pyrimidin-5-yl]ureido]acetamido]penicillanic acid, sodium salt] the value was 5 µg/mL.
Consider `CCN1CCN(C(=O)NC(C(=O)NC2(NC=O)C(=O)N3C(C(=O)[O-])C(C)(C)SC32)c2ccc(O)c(O)c2)C(=O)C1=O.[Na+]` (stereo not drawn) [Example 33, 6β-[2-[(4-Ethyl-2,3-dioxopiperazin-1-yl)carbonylamino]-2-(3,4-dihydroxyphenyl)acetamido]6α-formamidopenicillanic acid, sodium salt], for which, where the note is “P. mirabilis 889”, the “MIC against P. mirabilis 889” value worked out at 0.2 µg/mL.
In turn, `CC(=O)OCC1=C(C(=O)O)N2C(=O)[C@@](NC=O)(NC(=O)[C@H](N)c3ccccc3)[C@H]2SC1` [Example 35, 7β-(D-2-Amino-2-phenylacetamido)-7α-formamidocephalosporanic acid, trifluoroacetic acid salt] gave an MIC under setting [1] of more than 100 µg/mL.
The same measure, in the same setting: for `CCN1CCN(C(=O)N[C@@H](C(=O)N[C@]2(NC=O)C(=O)N3C(C(=O)O)=C(COC(C)=O)CS[C@@H]32)c2ccccc2)C(=O)C1=O` [Example 36, 7β-[D-2-[(4-Ethyl-2,3-dioxopiperazin-1-yl)carbonylamino]-2-phenylacetamido]-7α-Formamidocephalosporanic acid, sodium salt] the value was 0.2 µg/mL; for `CC(=O)OCC1=C(C(=O)O)N2C(=O)[C@@](NC=O)(NC(=O)[C@H](NC(=O)N3CCN(S(C)(=O)=O)C3=O)c3ccccc3)[C@H]2SC1` [Example 38, 7α-Formamido-7β-[D-2-[[3-(methylsulphonyl)-2-oxoimidazolidin-1-yl]carbonylamino]-2-phenylacetamido]cephalosporanic acid, sodium salt], 1 µg/mL; for `CCN1CCN(C(=O)N[C@@H](C(=O)N[C@]2(NC=O)C(=O)N3C(C(=O)O)=C(COC(C)=O)CS[C@@H]32)c2ccc(O)cc2)C(=O)C1=O` [Example 39, 7β-[D-2-[(4-Ethyl-2,3-dioxopiperazin-1-yl)carbonylamino]-2-(4-hydroxyphenyl)acetamido]-7α-formamidocephalosporanic acid, sodium salt], 0.2 µg/mL.
For the compound `CCN1CCN(C(=O)N[C@H](C(=O)N[C@]2(NC=O)C(=O)N3C(C(=O)O)=C(COC(C)=O)CS[C@@H]32)c2ccc(O)cc2)C(=O)C1=O` [Example 40, 7β-[L-2-[(4-Ethyl-2,3-dioxopiperazin-1-yl)carbonylamino]-2-(4-hydroxyphenyl)acetamido]-7α-formamidocephalosporanic acid, sodium salt], the MIC under setting [1] was found to be 100 µg/mL.
On the same count and under the same terms, for `CCN1CCN(C(=O)N[C@@H](C(=O)N[C@]2(NC=O)C(=O)N3C(C(=O)O)=C(COC(C)=O)CS[C@@H]32)c2ccc(OC(C)=O)c(OC(C)=O)c2)C(=O)C1=O` [Example 41, 7β-[D-2-[(4-Ethyl-2,3-dioxopiperazin-1-yl)carbonylamino]-2-(3,4-diacetoxyphenyl)acetamido]-7α-formamidocephalosporanic acid, sodium salt] the value was 0.1 µg/mL; for `CC(=O)OCC1=C(C(=O)O)N2C(=O)[C@@](NC=O)(NC(=O)Cc3cccs3)[C@H]2SC1` [Example 42, 7α-Formamido-7β-(thien-2-ylacetamido)cephalosporanic acid, sodium salt], 10 µg/mL; for `CC(=O)OCC1=C(C(=O)O)N2C(=O)[C@@](NC=O)(NC(=O)C(C(=O)O)c3ccsc3)[C@H]2SC1` (stereo partly drawn) [Example 43, 7β-[2-Carboxy-2-(thien-3-yl)acetamido]-7α-formamido cephalosporanic acid, disodium salt], 100 µg/mL.
On the same count and under the same terms, for `CCN1CCN(C(=O)N[C@@H](C(=O)N[C@]2(NC=O)C(=O)N3C(C(=O)O)=C(COC(C)=O)CS[C@@H]32)c2cccs2)C(=O)C1=O` [Example 44, 7β-[D-2-[(4-Ethyl-2,3-dioxopiperazin-1-yl)carbonylamino]-2-(thien-2-yl)acetamido]-7α-formamido-cephalosporanic acid, sodium salt] the value was 0.1 µg/mL; for `CCN1CCN(C(=O)N[C@H](C(=O)N[C@]2(NC=O)C(=O)N3C(C(=O)O)=C(COC(C)=O)CS[C@@H]32)c2cccs2)C(=O)C1=O` [Example 45, 7β-[L-2-[(4-Ethyl-2,3-dioxopiperazin-1-yl)carbonylamino]-2-(thien-2-yl)acetamido]-7α-formamidocephalosporanic acid, sodium salt], 0.25 µg/mL; for `CC(=O)OCC1=C(C(=O)O)N2C(=O)[C@@](NC=O)(NC(=O)Cc3csc(N)n3)[C@H]2SC1` [Example 46, 7β-[2-(2-Aminothiazol-4-yl)acetamido]-7α-formamidocephalosporanic acid, trifluoroacetic acid salt], 100 µg/mL.
On the same count and under the same terms, under `CC1(C)S[C@H]2N(C(=O)[C@@]2(NC=O)NC(=O)[C@H](NC(=O)Nc2cc3ccccc3oc2=O)c2ccc(O)cc2)[C@H]1C(=O)O` [Example 47, 6β-[D-2-[3-(Coumarin-3-yl)ureido]-2-(4-hydroxyphenyl)acetamido]-6α-formamidopenicillanic acid, sodium salt] stands 100 µg/mL; under `CC1(C)S[C@H]2N(C(=O)[C@@]2(NC=O)NC(=O)[C@H](NC(=O)Nc2coc3ccccc3c2=O)c2ccc(O)cc2)[C@H]1C(=O)O` [Example 48, 6β-[D-2-[3-(4-Oxo-4H-1-benzopyran-3-yl)ureido]-2-(4-hydroxyphenyl)acetamido]-6α-formamidopenicillanic acid, sodium salt], 50 µg/mL; under `Cc1ccc2c(O)c(C(=O)N[C@@H](C(=O)N[C@]3(NC=O)C(=O)N4[C@@H](C(=O)O)C(C)(C)S[C@@H]43)c3ccc(O)cc3)cnc2n1` [Example 49, 6α-Formamido-6β-[D-2-[(4-hydroxy-7-methyl-1,8-naphthyridin-3-yl)carbonylamino]-2-(4-hydroxyphenyl)acetamido]penicillanic acid, sodium salt], 5 µg/mL.
In turn, `CNC(=O)C[C@@H](N)C(=O)N[C@@H](C(=O)N[C@]1(NC=O)C(=O)N2[C@@H](C(=O)O)C(C)(C)S[C@@H]21)c1ccc(O)cc1` [Example 50, 6β-[D-2-[D-2-amino-3-(N-methylcarbamoyl)propionamido]-2-(4-hydroxyphenyl)acetamido]-6α-formamidopenicillanic acid, sodium salt] had an MIC (Proteus mirabilis, 889) of 1 µg/mL.
Under setting [1], `CC(=O)OCC1=C(C(=O)O)N2C(=O)[C@@](NC=O)(NC(=O)CSCC#N)[C@H]2SC1` [Example 51, 7β-[2-(Cyanomethylthio)acetamido]-7α-formamidocephalosporanic acid, sodium salt] returned an MIC of 25 µg/mL.
